Assay results published in patent US20020187944A1, “Inhibition of human immunodeficiency virus reverse transcriptase” (priority 2001, published 2002).

What was measured:
[1] = target: T1, HIV-1 reverse transcriptase (Human immunodeficiency virus type 1 group M subtype B, UniProt P04585); experiment: Inhibition of HIV reverse transcriptase, 3H-TTP incorporation on calf thymus DNA template; assay type: biochemical; details: for HIV RT Radioactivity: 60 minutes at 37° C.
T1 construct: 0.01 μg HIV-1 reverse transcriptase
Method: (§1) Inhibition of HIV reverse transcriptase (RT) was studied in a one milliliter reaction mixture containing 12.5 μmol Tris-HCl (pH 8.3), 3 μmol MgCl2, 10 μmol KCl, 2.5 μmol dithiothreitol, 0.04 μmol of each dNTP, 1 μCi ^3H-TTP (50 Ci/mmol), 10 μl of DMSO containing 0-320 μg/ml of 9-O-methyl oxime erythromycin A (EMO), and 0.01 μg HIV-1 reverse transcriptase. DNA template (0.01 μg) from calf thymus was used as the substrate in the reaction. After 60 minutes incubation at 37° C., samples from the reaction were pipetted on 3 MM filter paper discs (Whatman), which were washed 5 times in cold trichloroacetic acid (5%) containing sodium pyrophosphate (0.01 M). After drying, the discs were counted in a toluene scintillation solution using a Beckman scintillation spectrometer. Reactions with DNA-dependent DNA polymerase (DNA pol I, GibcoBRL) or DNA-dependent RNA polymerase from E. coli were carried out as described above, except that ^3H-UTP replaced ^3H-TTP where appropriate.

[2] = target: T2, DNA-dependent DNA polymerase (DNA pol I, GibcoBRL) (Escherichia coli, UniProt P00582); experiment: DNA-dependent DNA polymerase reaction, radiolabel incorporation; assay type: biochemical, E. coli
T2 construct: purchased GibcoBRL
Method: as §1

[3] = target: DNA-dependent RNA polymerase from E. coli (Escherichia coli, UniProt P0A8T7+P0A8V2); experiment: DNA-dependent RNA polymerase reaction, 3H-UTP incorporation; assay type: biochemical
Method: as §1

[4] = gastric acid; stated without a test; cited from earlier work

DNA-dependent RNA polymerase from E. coli, sequence (P0A8V2 whole entry): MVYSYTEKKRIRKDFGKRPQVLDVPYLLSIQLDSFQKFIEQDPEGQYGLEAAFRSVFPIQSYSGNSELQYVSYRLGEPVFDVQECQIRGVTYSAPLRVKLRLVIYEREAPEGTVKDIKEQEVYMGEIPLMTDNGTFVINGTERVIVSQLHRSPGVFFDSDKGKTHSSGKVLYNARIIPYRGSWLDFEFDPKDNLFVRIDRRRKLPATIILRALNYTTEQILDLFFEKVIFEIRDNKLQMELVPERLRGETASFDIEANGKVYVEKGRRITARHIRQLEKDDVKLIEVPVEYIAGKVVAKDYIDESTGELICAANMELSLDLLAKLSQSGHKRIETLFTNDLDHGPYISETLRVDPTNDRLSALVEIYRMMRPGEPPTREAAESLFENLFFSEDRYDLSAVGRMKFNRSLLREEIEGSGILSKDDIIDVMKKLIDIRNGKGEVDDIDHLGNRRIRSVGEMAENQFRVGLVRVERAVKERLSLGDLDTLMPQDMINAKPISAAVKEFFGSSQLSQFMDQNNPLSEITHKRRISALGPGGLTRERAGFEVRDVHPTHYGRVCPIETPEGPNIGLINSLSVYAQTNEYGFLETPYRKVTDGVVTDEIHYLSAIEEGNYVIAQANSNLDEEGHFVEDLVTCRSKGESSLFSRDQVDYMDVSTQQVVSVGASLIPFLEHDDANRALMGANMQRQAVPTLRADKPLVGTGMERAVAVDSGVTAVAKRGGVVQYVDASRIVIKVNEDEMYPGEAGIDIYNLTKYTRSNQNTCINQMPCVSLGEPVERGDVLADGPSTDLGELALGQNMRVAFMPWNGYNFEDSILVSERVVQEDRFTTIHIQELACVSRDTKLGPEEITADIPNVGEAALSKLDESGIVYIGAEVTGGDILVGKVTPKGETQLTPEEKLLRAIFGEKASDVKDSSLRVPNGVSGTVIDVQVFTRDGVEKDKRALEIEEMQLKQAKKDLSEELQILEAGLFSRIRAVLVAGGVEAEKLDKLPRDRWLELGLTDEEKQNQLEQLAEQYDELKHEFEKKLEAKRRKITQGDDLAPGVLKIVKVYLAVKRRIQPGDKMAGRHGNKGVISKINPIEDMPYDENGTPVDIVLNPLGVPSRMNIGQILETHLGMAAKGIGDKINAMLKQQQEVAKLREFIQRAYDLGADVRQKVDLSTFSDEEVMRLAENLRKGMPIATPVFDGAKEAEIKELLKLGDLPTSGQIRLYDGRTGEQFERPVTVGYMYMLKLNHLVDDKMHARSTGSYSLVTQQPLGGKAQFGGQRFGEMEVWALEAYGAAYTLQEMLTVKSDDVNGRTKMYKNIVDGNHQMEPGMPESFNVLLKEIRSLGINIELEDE
DNA-dependent RNA polymerase from E. coli, sequence (P0A7Z4 whole entry, further chain): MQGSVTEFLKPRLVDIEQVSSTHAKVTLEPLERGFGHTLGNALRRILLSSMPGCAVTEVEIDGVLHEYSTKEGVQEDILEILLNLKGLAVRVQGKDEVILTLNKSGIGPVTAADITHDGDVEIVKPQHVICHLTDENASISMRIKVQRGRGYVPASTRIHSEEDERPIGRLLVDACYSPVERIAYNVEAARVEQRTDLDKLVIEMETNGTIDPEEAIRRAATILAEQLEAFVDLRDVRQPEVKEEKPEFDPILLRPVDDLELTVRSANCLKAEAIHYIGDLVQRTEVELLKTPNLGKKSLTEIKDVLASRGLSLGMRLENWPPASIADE
DNA-dependent RNA polymerase from E. coli, sequence (P0A800 whole entry, further chain): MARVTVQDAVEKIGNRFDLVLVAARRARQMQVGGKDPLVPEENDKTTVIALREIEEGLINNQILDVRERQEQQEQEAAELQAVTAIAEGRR
DNA-dependent RNA polymerase from E. coli, sequence (P0A8T7 whole entry): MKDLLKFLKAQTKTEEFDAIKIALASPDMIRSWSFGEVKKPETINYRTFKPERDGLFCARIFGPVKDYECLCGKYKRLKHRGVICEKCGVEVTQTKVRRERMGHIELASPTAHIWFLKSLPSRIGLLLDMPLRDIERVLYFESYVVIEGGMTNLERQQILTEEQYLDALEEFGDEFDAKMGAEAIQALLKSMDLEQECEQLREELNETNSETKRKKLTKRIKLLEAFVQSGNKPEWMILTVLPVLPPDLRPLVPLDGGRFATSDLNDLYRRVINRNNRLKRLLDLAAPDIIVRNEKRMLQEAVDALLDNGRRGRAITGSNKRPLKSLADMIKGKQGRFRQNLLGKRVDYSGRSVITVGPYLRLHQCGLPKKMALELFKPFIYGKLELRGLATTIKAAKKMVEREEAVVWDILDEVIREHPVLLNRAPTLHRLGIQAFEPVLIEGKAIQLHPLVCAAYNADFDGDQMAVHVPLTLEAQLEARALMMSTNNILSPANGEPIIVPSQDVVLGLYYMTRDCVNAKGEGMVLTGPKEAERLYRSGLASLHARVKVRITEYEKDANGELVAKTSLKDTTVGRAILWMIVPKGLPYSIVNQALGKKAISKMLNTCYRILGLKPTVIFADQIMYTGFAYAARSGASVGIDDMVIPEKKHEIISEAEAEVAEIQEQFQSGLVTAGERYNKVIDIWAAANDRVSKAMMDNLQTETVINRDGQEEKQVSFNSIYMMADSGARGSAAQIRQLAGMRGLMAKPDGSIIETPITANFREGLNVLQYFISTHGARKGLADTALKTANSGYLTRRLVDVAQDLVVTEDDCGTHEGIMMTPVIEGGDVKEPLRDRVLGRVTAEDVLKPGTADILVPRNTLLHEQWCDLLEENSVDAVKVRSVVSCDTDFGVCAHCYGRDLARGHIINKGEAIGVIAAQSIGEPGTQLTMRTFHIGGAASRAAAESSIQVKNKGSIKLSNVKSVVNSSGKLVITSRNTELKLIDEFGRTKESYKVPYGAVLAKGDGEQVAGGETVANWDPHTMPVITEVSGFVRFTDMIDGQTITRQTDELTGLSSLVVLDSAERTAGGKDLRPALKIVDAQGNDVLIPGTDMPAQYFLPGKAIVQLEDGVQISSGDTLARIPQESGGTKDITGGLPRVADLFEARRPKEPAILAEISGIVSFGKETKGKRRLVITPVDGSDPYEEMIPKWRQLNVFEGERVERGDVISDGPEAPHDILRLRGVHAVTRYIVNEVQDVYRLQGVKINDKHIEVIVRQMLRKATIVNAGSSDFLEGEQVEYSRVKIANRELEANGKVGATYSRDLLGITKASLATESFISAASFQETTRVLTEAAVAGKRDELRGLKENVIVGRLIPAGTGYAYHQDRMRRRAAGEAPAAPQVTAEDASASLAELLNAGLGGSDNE
T2 sequence (P00582 whole entry): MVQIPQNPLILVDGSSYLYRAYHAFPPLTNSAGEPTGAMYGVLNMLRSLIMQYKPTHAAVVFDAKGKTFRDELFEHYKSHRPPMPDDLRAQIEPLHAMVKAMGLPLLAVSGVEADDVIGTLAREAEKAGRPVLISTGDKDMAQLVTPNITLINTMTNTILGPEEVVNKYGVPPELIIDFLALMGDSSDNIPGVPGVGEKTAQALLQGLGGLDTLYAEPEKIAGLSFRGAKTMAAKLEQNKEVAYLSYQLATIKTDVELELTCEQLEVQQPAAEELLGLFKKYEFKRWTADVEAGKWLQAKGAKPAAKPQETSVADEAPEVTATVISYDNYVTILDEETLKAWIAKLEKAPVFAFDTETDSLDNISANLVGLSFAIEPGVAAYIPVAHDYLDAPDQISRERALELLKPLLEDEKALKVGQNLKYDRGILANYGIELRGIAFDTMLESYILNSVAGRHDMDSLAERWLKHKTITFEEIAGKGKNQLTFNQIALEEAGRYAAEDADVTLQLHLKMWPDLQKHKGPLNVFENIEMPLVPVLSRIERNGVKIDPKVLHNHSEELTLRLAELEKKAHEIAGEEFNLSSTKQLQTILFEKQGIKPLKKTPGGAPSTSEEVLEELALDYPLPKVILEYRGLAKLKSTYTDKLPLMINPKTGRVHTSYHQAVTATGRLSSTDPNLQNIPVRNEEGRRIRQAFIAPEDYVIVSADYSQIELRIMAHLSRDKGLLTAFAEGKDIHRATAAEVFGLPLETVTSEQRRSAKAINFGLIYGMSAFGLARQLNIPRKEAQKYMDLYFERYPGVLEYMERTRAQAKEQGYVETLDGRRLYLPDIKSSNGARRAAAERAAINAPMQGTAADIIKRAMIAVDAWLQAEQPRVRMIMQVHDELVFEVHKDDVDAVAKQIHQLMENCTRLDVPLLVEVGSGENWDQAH

Q: With `CC[C@H]1OC(=O)[C@H](C)[C@@H](O[C@H]2C[C@@](C)(OC)[C@@H](O)[C@H](C)O2)[C@H](C)[C@@H](O[C@@H]2O[C@H](C)C[C@H](N(C)C)[C@H]2O)[C@](C)(O)C[C@@H](C)/C(=N\OC)[C@H](C)[C@@H](O)[C@]1(C)O` [EMO, 9-O-methyl oxime erythromycin A] as the compound, how does the “HIV RT % Inhibition” value ([1]; [EMO] 20 μg/ml) read?
A: Its value is 0.8%.

Q: What about the “HIV RT Radioactivity” value ([1]; [EMO] 20 μg/ml) of the same compound?
A: Its value is 8490 cpm.

Q: And the “HIV RT % Inhibition” value ([1]; [EMO] 40 μg/ml)?
A: The value was −0.5%.

Q: And the “HIV RT Radioactivity” value ([1]; [EMO] 40 μg/ml)?
A: The value was 8600 cpm.

Q: What about the “HIV RT % Inhibition” value ([1]; [EMO] 80 μg/ml) of the same compound?
A: Its value is 20%.

Q: What about the “HIV RT Radioactivity” value ([1]; [EMO] 80 μg/ml) of the same compound?
A: The value was 6850 cpm.

Q: What about the “HIV RT % Inhibition” value ([1]; [EMO] 160 μg/ml) of the same compound?
A: Its value is 81%.

Q: And the “HIV RT Radioactivity” value ([1]; [EMO] 160 μg/ml)?
A: The value was 1625 cpm.

Q: What about the “HIV RT % Inhibition” value ([1]; [EMO] 320 μg/ml) of the same compound?
A: The value was 85%.

Q: What about the “HIV RT Radioactivity” value ([1]; [EMO] 320 μg/ml) of the same compound?
A: The value was 1287 cpm.

Q: What about the “DNA-dependent DNA polymerase % Inhibition” value ([2]; [EMO] 80 μg/ml) of the same compound?
A: Its value is −2%.

Q: What about the “DNA-dependent DNA polymerase Radioactivity” value ([2]; [EMO] 80 μg/ml) of the same compound?
A: Its value is 12,800 cpm.

Q: What about the “DNA-dependent DNA polymerase % Inhibition” value ([2]; [EMO] 160 μg/ml) of the same compound?
A: The value was 1%.

Q: What about the “DNA-dependent DNA polymerase Radioactivity” value ([2]; [EMO] 160 μg/ml) of the same compound?
A: Its value is 12,400 cpm.

Q: And the “DNA-dependent DNA polymerase % Inhibition” value ([2]; [EMO] 320 μg/ml)?
A: The value was 0%.

Q: What about the “DNA-dependent DNA polymerase Radioactivity” value ([2]; [EMO] 320 μg/ml) of the same compound?
A: Its value is 12,600 cpm.

Q: What about the “DNA-dependent RNA polymerase % Inhibition” value ([3]; [EMO] 80 μg/ml) of the same compound?
A: Its value is −0.2%.

Q: And the “DNA-dependent RNA polymerase Radioactivity” value ([3]; [EMO] 80 μg/ml)?
A: The value was 33,000 cpm.

Q: And the “DNA-dependent RNA polymerase % Inhibition” value ([3]; [EMO] 160 μg/ml)?
A: Its value is −1%.

Q: What about the “DNA-dependent RNA polymerase Radioactivity” value ([3]; [EMO] 160 μg/ml) of the same compound?
A: The value was 32,800 cpm.

Q: What about the “DNA-dependent RNA polymerase % Inhibition” value ([3]; [EMO] 320 μg/ml) of the same compound?
A: Its value is 0.5%.

Q: And the “DNA-dependent RNA polymerase Radioactivity” value ([3]; [EMO] 320 μg/ml)?
A: The value was 32,400 cpm.

Q: For `CC[C@H]1OC(=O)[C@H](C)[C@@H](O[C@H]2C[C@@](C)(OC)[C@@H](O)[C@H](C)O2)[C@H](C)[C@@H](O[C@@H]2O[C@H](C)C[C@H](N(C)C)[C@H]2O)[C@](C)(O)C[C@@H](C)C(=O)[C@H](C)[C@@H](O)[C@]1(C)O` [Erythromycin A, erythromycin A], which acid stability [4] is on record?
A: Its acid stability is “acid labile”.
